# Results reported in PubChem BioAssay (NCI).
#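 1) Cells in 96-well plates. 2) Compound, 48 h, 5 concentrations. 3) Linear interpolation between surrounding doses. 4) Unreached endpoint = highest concentration. The concentration for 50% growth inhibition is given as GI50. The concentration for full growth arrest is given as TGI.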
# Tests used:
# Assay in all cases: DTP human tumour cell line panel, 48 h
# RXF 393 renal = system: RXF 393 renal
# MOLT-4 leukemia = system: MOLT-4 leukemia
# SK-MEL-5 melanoma = system: SK-MEL-5 melanoma
# A549 NSCLC = system: A549 NSCLC
# HOP-62 NSCLC = system: HOP-62 NSCLC
# SR leukemia = system: SR leukemia
# NCI-H460 lung = system: NCI-H460 lung
# SW-620 colon = system: SW-620 colon
# M14 melanoma = system: M14 melanoma
# MDA-MB-435 = system: MDA-MB-435
# HOP-92 NSCLC = system: HOP-92 NSCLC
# NCI/ADR-RES ovarian = system: NCI/ADR-RES ovarian
# MCF7 breast = system: MCF7 breast
# COLO 205 colon = system: COLO 205 colon
# RPMI-8226 leukemia = system: RPMI-8226 leukemia
# U251 CNS = system: U251 CNS
# HL-60(TB) leukemia = system: HL-60(TB) leukemia
# SNB-75 CNS = system: SNB-75 CNS
# SF-268 CNS = system: SF-268 CNS
# NCI-H23 lung = system: NCI-H23 lung
# 786-0 renal = system: 786-0 renal
# UACC-62 melanoma = system: UACC-62 melanoma
# SK-MEL-28 melanoma = system: SK-MEL-28 melanoma
# SK-MEL-2 melanoma = system: SK-MEL-2 melanoma
# T-47D breast = system: T-47D breast
# IGROV1 ovarian = system: IGROV1 ovarian
# CCRF-CEM leukemia = system: CCRF-CEM leukemia
# K-562 leukemia = system: K-562 leukemia
# ACHN renal = system: ACHN renal
# OVCAR-4 ovarian = system: OVCAR-4 ovarian
# SK-OV-3 ovarian = system: SK-OV-3 ovarian
# MALME-3M melanoma = system: MALME-3M melanoma
# CAKI-1 renal = system: CAKI-1 renal
# OVCAR-5 ovarian = system: OVCAR-5 ovarian
# OVCAR-8 ovarian = system: OVCAR-8 ovarian
# HCC-2998 colon = system: HCC-2998 colon
# SNB-19 CNS = system: SNB-19 CNS
# EKVX NSCLC = system: EKVX NSCLC
# UACC-257 melanoma = system: UACC-257 melanoma
# DU-145 prostate = system: DU-145 prostate
# SF-539 CNS = system: SF-539 CNS
# NCI-H226 lung = system: NCI-H226 lung
# SF-295 CNS = system: SF-295 CNS
# SN12C renal = system: SN12C renal
# HT29 colon = system: HT29 colon
# NCI-H522 lung = system: NCI-H522 lung
# HCT-15 colon = system: HCT-15 colon
# HS 578T breast = system: HS 578T breast
# LOX IMVI melanoma = system: LOX IMVI melanoma
# MDA-MB-231 breast = system: MDA-MB-231 breast
# KM12 colon = system: KM12 colon
# HCT-116 colon = system: HCT-116 colon
# TK-10 renal = system: TK-10 renal
# OVCAR-3 ovarian = system: OVCAR-3 ovarian
# PC-3 prostate = system: PC-3 prostate
# BT-549 breast = system: BT-549 breast
# UO-31 renal = system: UO-31 renal
structure (smiles),measurement,setting,value
C=CCNc1nc(C#N)c(N)s1,TGI,RXF 393 renal,> 10 µM
same,TGI,MOLT-4 leukemia,> 10 µM
same,TGI,SK-MEL-5 melanoma,> 10 µM
same,TGI,A549 NSCLC,> 10 µM
same,TGI,HOP-62 NSCLC,> 10 µM
same,TGI,SR leukemia,> 10 µM
same,TGI,NCI-H460 lung,> 10 µM
same,TGI,SW-620 colon,> 10 µM
same,TGI,M14 melanoma,> 10 µM
same,TGI,MDA-MB-435,> 10 µM
same,TGI,HOP-92 NSCLC,> 10 µM
same,TGI,NCI/ADR-RES ovarian,> 10 µM
same,TGI,MCF7 breast,> 10 µM
same,TGI,COLO 205 colon,> 10 µM
same,TGI,RPMI-8226 leukemia,> 10 µM
same,TGI,U251 CNS,> 10 µM
same,TGI,HL-60(TB) leukemia,> 10 µM
same,TGI,SNB-75 CNS,> 10 µM
same,TGI,SF-268 CNS,> 10 µM
same,TGI,NCI-H23 lung,> 10 µM
same,TGI,786-0 renal,> 10 µM
same,TGI,UACC-62 melanoma,> 10 µM
same,TGI,SK-MEL-28 melanoma,> 10 µM
same,TGI,SK-MEL-2 melanoma,> 10 µM
same,TGI,T-47D breast,> 10 µM
same,TGI,IGROV1 ovarian,> 10 µM
same,TGI,CCRF-CEM leukemia,> 10 µM
same,TGI,K-562 leukemia,> 10 µM
same,TGI,ACHN renal,> 10 µM
same,TGI,OVCAR-4 ovarian,> 10 µM
same,TGI,SK-OV-3 ovarian,> 10 µM
same,TGI,MALME-3M melanoma,> 10 µM
same,TGI,CAKI-1 renal,> 10 µM
same,TGI,OVCAR-5 ovarian,> 10 µM
Nc1ccccc1C#C/C=C\C#Cc1cccs1,GI50,RXF 393 renal,33.8 µM
same,TGI,RXF 393 renal,> 83.9 µM
same,GI50,MOLT-4 leukemia,2.49 µM
same,TGI,MOLT-4 leukemia,84.1 µM
same,GI50,SK-MEL-5 melanoma,4.36 µM
same,TGI,SK-MEL-5 melanoma,17.6 µM
same,GI50,OVCAR-8 ovarian,25 µM
same,TGI,OVCAR-8 ovarian,> 83.4 µM
same,GI50,HCC-2998 colon,4.17 µM
same,TGI,HCC-2998 colon,19.3 µM
same,GI50,SNB-19 CNS,43.5 µM
same,TGI,SNB-19 CNS,> 100 µM
same,GI50,A549 NSCLC,10.4 µM
same,TGI,A549 NSCLC,> 42.5 µM
same,GI50,HOP-62 NSCLC,11.2 µM
same,TGI,HOP-62 NSCLC,33.2 µM
same,GI50,NCI-H460 lung,13.7 µM
same,TGI,NCI-H460 lung,42.5 µM
same,GI50,EKVX NSCLC,12.7 µM
same,TGI,EKVX NSCLC,35.1 µM
same,GI50,SW-620 colon,14.4 µM
same,TGI,SW-620 colon,33 µM
same,GI50,M14 melanoma,10.5 µM
same,TGI,M14 melanoma,30.9 µM
same,GI50,MDA-MB-435,2.81 µM
same,TGI,MDA-MB-435,12.2 µM
same,GI50,UACC-257 melanoma,23.2 µM
same,TGI,UACC-257 melanoma,> 57.8 µM
same,GI50,HOP-92 NSCLC,6.4 µM
same,TGI,HOP-92 NSCLC,36.6 µM
same,GI50,NCI/ADR-RES ovarian,8.69 µM
same,TGI,NCI/ADR-RES ovarian,27.7 µM
same,GI50,DU-145 prostate,10.2 µM
same,TGI,DU-145 prostate,31.6 µM
same,GI50,MCF7 breast,2.34 µM
same,TGI,MCF7 breast,> 100 µM
same,GI50,SF-539 CNS,5.6 µM
same,TGI,SF-539 CNS,17.8 µM
same,GI50,NCI-H226 lung,2.22 µM
same,TGI,NCI-H226 lung,16.9 µM
same,GI50,SF-295 CNS,11.3 µM
same,TGI,SF-295 CNS,46.1 µM
same,GI50,COLO 205 colon,18.2 µM
same,TGI,COLO 205 colon,78.3 µM
same,GI50,SN12C renal,4.62 µM
same,TGI,SN12C renal,16.7 µM
same,GI50,HT29 colon,20.3 µM
same,TGI,HT29 colon,57.3 µM
same,GI50,NCI-H522 lung,6.84 µM
same,TGI,NCI-H522 lung,31.6 µM
same,GI50,HCT-15 colon,9.45 µM
same,TGI,HCT-15 colon,43.7 µM
same,GI50,RPMI-8226 leukemia,1.25 µM
same,TGI,RPMI-8226 leukemia,> 35.7 µM
same,GI50,U251 CNS,8.34 µM
same,TGI,U251 CNS,27.5 µM
same,GI50,HL-60(TB) leukemia,0.696 µM
same,TGI,HL-60(TB) leukemia,12.3 µM
same,GI50,SNB-75 CNS,16.8 µM
same,TGI,SNB-75 CNS,61.9 µM
same,GI50,HS 578T breast,15.2 µM
same,TGI,HS 578T breast,41.8 µM
same,GI50,LOX IMVI melanoma,3.55 µM
same,TGI,LOX IMVI melanoma,14.7 µM
same,GI50,SF-268 CNS,4.26 µM
same,TGI,SF-268 CNS,34.9 µM
same,GI50,NCI-H23 lung,14.3 µM
same,TGI,NCI-H23 lung,41.2 µM
same,GI50,786-0 renal,13.5 µM
same,TGI,786-0 renal,35.1 µM
same,TGI,MDA-MB-231 breast,4.47 µM
same,GI50,UACC-62 melanoma,5.96 µM
same,TGI,UACC-62 melanoma,19.4 µM
same,GI50,KM12 colon,5.66 µM
same,TGI,KM12 colon,25.6 µM
same,GI50,SK-MEL-28 melanoma,24.6 µM
same,TGI,SK-MEL-28 melanoma,> 67.5 µM
same,GI50,SK-MEL-2 melanoma,16.2 µM
same,TGI,SK-MEL-2 melanoma,43.3 µM
same,GI50,HCT-116 colon,9.55 µM
same,TGI,HCT-116 colon,46.5 µM
same,GI50,T-47D breast,17.4 µM
same,TGI,T-47D breast,48.2 µM
same,GI50,TK-10 renal,17.3 µM
same,TGI,TK-10 renal,39.8 µM
same,GI50,IGROV1 ovarian,6.36 µM
same,TGI,IGROV1 ovarian,> 39.6 µM
same,GI50,OVCAR-3 ovarian,4.85 µM
same,TGI,OVCAR-3 ovarian,24.8 µM
same,GI50,CCRF-CEM leukemia,0.295 µM
same,TGI,CCRF-CEM leukemia,2.2 µM
same,GI50,K-562 leukemia,3.53 µM
same,TGI,K-562 leukemia,> 100 µM
same,GI50,ACHN renal,15.9 µM
same,TGI,ACHN renal,58.3 µM
same,GI50,PC-3 prostate,4.48 µM
same,TGI,PC-3 prostate,27.3 µM
same,GI50,OVCAR-4 ovarian,16.2 µM
same,TGI,OVCAR-4 ovarian,> 50.7 µM
same,GI50,SK-OV-3 ovarian,26.5 µM
same,TGI,SK-OV-3 ovarian,> 52.3 µM
same,GI50,BT-549 breast,12.2 µM
same,TGI,BT-549 breast,28.7 µM
same,GI50,MALME-3M melanoma,5.38 µM
same,TGI,MALME-3M melanoma,29.2 µM
same,GI50,CAKI-1 renal,3.75 µM
same,TGI,CAKI-1 renal,21 µM
same,GI50,OVCAR-5 ovarian,15.2 µM
same,TGI,OVCAR-5 ovarian,32.7 µM
same,GI50,UO-31 renal,8.77 µM
same,TGI,UO-31 renal,> 43.5 µM
